In one assay the test system is L1.2hCCR5 cells. The experiment in a line: Chemotaxis assay. The conditions noted are these: Homo sapiens; Inhibition of RANTES stimulated chemotaxis. Format: cell-based. The text has this:
The chemotaxis assay is a functional assay which measures the ability of a non-adherent cell line expressing human CCR5 receptor to migrate across a membrane in response to either test compounds or natural attractant ligand(s) (i.e., RANTES, MIP-1β). Generally, chemotaxis assays monitor the directional movement or migration of a suitable cell (such as a leukocyte (e.g., lymphocyte, eosinophil, basophil)) into or through a barrier (e.g., endothelium, a permeable filter membrane), toward, from a first surface of the barrier toward an opposite second surface containing attractant ligands. Membranes or filters provide convenient barriers to monitor the directional movement or migration of a suitable cell into or through a filter, toward increased levels of an attractant. In some assays, the membrane is coated with a substance to facilitate adhesion, such as ICAM-1, fibronectin or collagen. Such assays provide an in vitro approximation of leukocyte “homing”. […] The filter is then removed and the density of the cells that have migrated to the bottom wells is detected using CyQUANT^R cell proliferation assay kit (Invitrogen) and the Spectra MAX GeminiXS plate reader (Molecular Devices) according to the manufacturers' instructions. Using the fluorescence measurements the percent migration is determined by % migration=[1−(max−obs)/(max−min)]×100. […] This is calculated with Excel Fit.

In a further assay the target is CCR5 (Homo sapiens, UniProt P51681). The experiment in a line: Human CCR5 receptor-ligand binding assay (125I RANTES, CHO-Gα16-hCCR5 cells). Also on record: expressed in transfected cells. The conditions noted are these: specific 125I RANTES binding, CHO-Gα16-hCCR5 cells; read-out: IC50. The method, then: The construct was transfected into CHO-Gα16 cells by using Fugene Reagent (Roche).
Adherent cells in […] tissue culture flask (ca. 90% confluent) were harvested using 1 mM EDTA in PBS (phosphate-buffered saline) without Ca^2+ and Mg^2+. Cells were washed twice with PBS containing no Ca^2+ and Mg^2+.
Eighty μl CHO-Gα16-hCCR5 (1×10^6/mL) cells were added to 96 well plates.
The compound dilutions were made in PBS, 1% BSA. Total reaction volume was 100 μl per well. The test compounds were added to the cells prior to the addition of radioligand.
After incubation, the cells were harvested onto GF/C filter plates using Packard cell harvester. Filters were pretreated with 0.3% PEI/0.2% BSA for 30 min. The filter plate was washed rapidly 5 times with 25 mM HEPES, 500 mM NaCl, 1 mM CaCl2 and 5 mM MgCl2 adjusted to pH 7.1. Plates were dried in oven (70° C.) for 20 min, added with 40 μl scintillation fluid and sealed with Packard TopSeal-A. Packard Top Count was used to measure of the radioactivity for 1 min per well.
Total binding was determined with control wells added with radioisotope and buffer and the non-specific binding was determined using an excess cold RANTES to some of the control wells. Specific binding was determined by subtracting the non-specific form total binding. […] IC50 values were determined using varying concentrations of the test ligand in triplicates and the data was analyzed using GraphPad Prism (GraphPad, San Diego, Calif.).

The source of these data is patent publication US7625891B2, “Heterocylic antiviral compounds” (Roche Palo Alto LLC, priority 2007, dated 2009).

What is called IC50 is the concentration that inhibits the measured activity by half.

SMILES strings stand for the structures.

Chain of CCR5 (P51681 whole entry): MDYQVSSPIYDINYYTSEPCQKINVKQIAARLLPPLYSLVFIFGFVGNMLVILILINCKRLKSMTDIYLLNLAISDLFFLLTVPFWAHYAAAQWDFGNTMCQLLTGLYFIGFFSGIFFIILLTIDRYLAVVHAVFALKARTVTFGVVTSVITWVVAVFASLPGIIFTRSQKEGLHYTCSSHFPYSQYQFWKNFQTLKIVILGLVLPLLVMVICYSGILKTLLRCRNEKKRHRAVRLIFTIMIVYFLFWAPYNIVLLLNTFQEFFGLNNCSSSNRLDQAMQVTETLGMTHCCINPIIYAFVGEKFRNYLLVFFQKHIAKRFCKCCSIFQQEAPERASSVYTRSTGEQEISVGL

With `CCCCC1CN(C[C@H]2CC[C@@H](OC)CC2)C(=O)OC12CCN(C1(C)CCN(C(=O)c3c(C)ncnc3C)CC1)CC2` (relative stereo) [Compound I-2, 5-Butyl-9-[1-(4,6-dimethyl-pyrimidine-5-carbonyl)-4-methyl-piperidin-4-yl]-3-(cis-4-methoxy-cyclohexylmethyl)-1-oxa-3,9-diaza-spiro[5.5]undecan-2-one], the values for the IC50 in the assay on L1.2hCCR5 cells and on CCR5 were 237 nM and 16.2 nM, respectively.
